Experimental data published in patent US7923425B2, “Low-foaming, acidic low-temperature cleaner and process for cleaning surfaces” (Henkel AG & Co. KGaA, priority 2006, dated 2011).
Several values for one entry are separate records, joined by “and”; a condition that tells them apart may be missing. Equal values may be shown once.

How the values were obtained:
[1] = Cleaning test on soiled aluminum panels, mineral oil soil; conditions: 0.05% alone in water, no matrix, 120° F., 90 seconds
Protocol: (§1) A series of commercially available cleaners as well as certain surfactants and related compounds in water, alone, without a builder matrix were tested for cleaning performance. The cleaning effectiveness of each cleaner composition was tested follows: • 1. Soiled aluminum panels, 1″×4″, were used as the test specimens. […] Mineral oil and corn oil, each modified by the addition of 10% graphite, were used as the soils for each screening. Soil patches on the aluminum were deposited immediately before testing.
(§2) The test specimens were cleaned by low-impingement, continuously circulated aqueous working baths to determine chemical cleaning strength. The test also screened for foaminess. The continuous circulation promoted foam formation. Cleaning effectiveness was evaluated gravimetrically and the percentage of oily contaminant removed by the formulation was calculated by comparing soil weights before and after cleaning. This technique is a common procedure in analytic chemistry and will be familiar to those of skill in the art. The results of these experiments are summarized in Tables 1 and 3 as percent reduction of soil.

[2] = Cleaning test on soiled aluminum panels, corn oil soil; conditions: 0.05% alone in water, no matrix, 120° F., 90 seconds
Protocol: as §1, §2

Row | Compound | % reduction of soil, Min Oil, single panel [1] | % reduction of soil, Corn Oil, single panel [2]
1 | OCCOCCOCc1ccccc1 [Surfactant #7, benzyl alcohol ethoxylate, C6H5CH2—O—(CH2—CH2—O)n—H, n=2] | 98.9% and 100.0% (2×) | 92.2% and 92.0% and 91.6%
2 | tri(propylene glycol) propyl ether | 93.9% and 100.0% (2×) | 90.0% and 88.9% and 95.0%
